Measurements published in patent publication US8906829B2, “Synergistic algicidal compositions including hydrazone derivatives and copper” (Dow AgroSciences LLC, priority 2010, dated 2014).

Assays:
C. reinhardtii CC-1928 = experiment: Effect of copper on activity of hydrazones: in vitro growth inhibition of C. reinhardtii in TAP Cu minus / TAP Cu plus medium (Example 10); assay type: cell-based, Chlamydomonas reinhardtii; details: test compound 1 μg/mL, 48 h; for inhibition of growth at 1 µg/mL: Chlamydomonas reinhardtii, TAP Cu minus medium, read-out: % Inhn. Minus Copper Observed; for % Inhn. Plus Copper Observed: TAP Cu plus medium (CuCl2)
Procedure: In vitro toxicity assays against C. reinhardtii CC-1928 (wild type mt+137c green in dark subclone) obtained from the Chlamydomonas Resource Center at Duke University were conducted using TAP liquid growth medium described by Gorman and Levine Proc. Natl. Acad. Sci. USA 1965, 54, 1665-1669 except that CuSO4.5H2O, normally included as a component of Hutner's trace element stock solution (Hutner et al. Proc. Am. Philos. Soc. 1950, 94, 152-170), was omitted. The TAP medium lacking Cu (TAP Cu minus) was prepared by adding 400 mg NH4Cl, 10 mL of 100× Tris-Acetate (242 g Tris-base and 100 mL glacial acetic acid in 1000 mL milli Q water), and 8.3 mL of 120.5× phosphate buffer (14.34 g K2HPO4 and 7.26 g KH2PO4 in 1000 mL milli Q water) to milli Q water to make a total volume of 1 liter. The medium was treated with 0.5 g Chelex 100 resin (Bio-Rad Analytical grade, 50-100 mesh, sodium form, cat#142-2822) by stirring at room temperature for 1 hour. 900 mL were decanted and 45.9 mg of CaCl2.2H2O, 90 mg of MgSO4.7H2O and 0.9 mL Hutner's trace elements lacking CuSO4.5H2O were added and the solution was filter-sterilized. Medium containing copper (TAP Cu plus) was prepared by adding CuCl2.2H2O to the TAP Cu minus medium at 20 μM. Test compounds were dissolved in dimethylsulfoxide (DMSO) at 2 mg/mL then dilutions in TAP Cu minus and TAP Cu plus media were prepared in sterilized microcentrifuge tubes at 2 μg/mL. 100 μL aliquots of diluted compound were dispensed into flat-bottomed 96-well microtiter plates. C. reinhardtii was maintained under 12 h of light on TAP agar plates at 18° C. A loopful of cells was added to 50 mL of TAP Cu minus medium and the culture incubated with shaking at 200 rpm at 27° C. for 24 h. The culture (10 to 20 mL aliquot) was centrifuged in a bench centrifuge at 2000 rpm for 2 min. The resulting cell pellet was resuspended in 5 mL sterile milli Q water (which had been treated with Chelex 100 resin using 0.5 g resin per liter of water by stirring at room temperature for 1 h), and recentrifuged. The cells were resuspended in TAP Cu minus medium, and the suspension adjusted to 2×10^5 spores per mL. Microtiter plates containing compounds as described above were inoculated with 100 μL of this cell suspension and the plates incubated at 27° C. for 48 h before assessing algal growth by measuring light scattering in a NepheloStar plate-reader. Growth inhibition was determined by comparing growth in the presence of test compound with growth in control wells lacking test compound. Results for growth inhibition by test compounds at 1 μg/mL in TAP Cu plus medium (% Inhn Plus Copper Observed) were compared with predicted values (% Inhn Plus Copper Predicted) that were calculated using the formula set forth by S. R. Colby in Weeds 1967, 15, 20-22 based on results obtained for the same compounds in TAP Cu minus medium (% Inhn Minus Copper Observed). […] Results illustrate that hydrazones and copper produce a synergistic algicidal effect towards C. reinhardtii.

[1] = tested on: Synechocystis sp. strain 6803; experiment: Effect of copper on activity of hydrazones: in vitro growth inhibition of Synechocystis in BG-11 Cu minus / Cu plus medium (Example 11); assay type: cell-based; details: 72 h; for % Inhn. Plus Copper Observed: BG-11 Cu plus medium
Procedure: In vitro toxicity assays against the cyanobacterium (blue-green alga) Synechocystis sp. strain 6803 were conducted using BG-11 medium except that copper micronutrient, normally included as CuSO4.5H2O, was omitted. The medium, termed BG-11 Cu minus, was prepared by dissolving 1.5 g NaNO3, 40 mg K2HPO4, 6 mg citric acid, 1 mg Na2EDTA and 20 mg Na2CO3 in 1 liter of milli Q water and treating the solution with 0.5 g Chelex 100 resin (Bio-Rad Analytical grade, 50-100 mesh, sodium form, cat#142-2822) by stifling at room temperature for 1 h. 900 mL were decanted and 67.5 mg MgSO4.7H2O, 32.4 mg […], 5.4 mg ferric ammonium citrate and 0.9 mL trace metal mix A5 without copper (2.86 g H3BO3, 1.81 g MnCl2.4H2O, 222 mg ZnSO4.7H2O, 390 mg Na2MoO4.2H2O and Co(NO3)2.6H2O in 1 L Milli Q water) was added. The pH was adjusted to 7.1 and the medium was filter-sterilized. Medium containing copper (BG-11 Cu plus) was prepared by adding CuCl2.2H2O to the BG-11 Cu minus medium at 0.2 μM. Test compounds were dissolved in dimethylsulfoxide (DMSO) at 2 mg/mL then appropriate dilutions in BG-11 Cu minus and BG-11 Cu plus media were prepared in sterilized microcentrifuge tubes. 100 μL aliquots were dispensed into flat-bottomed 96-well microtiter plates. Synechocystis was maintained under 24 h of light on BG-11 agar plates at 27° C. A loopful of cells was added to 50 mL of BG-11 Cu minus growth medium and the culture was incubated with shaking at 200 rpm at 27° C. for 24 h. The culture (10 to 20 mL aliquot) was centrifuged in a bench centrifuge at 2400 rpm for 2 min. The resulting cell pellet was resuspended in 5 mL sterile milli Q water (which had been treated with Chelex 100 resin using 0.5 g resin per liter of water by stirring at room temperature for 1 h), and recentrifuged. The cells were resuspended in BG-11 Cu minus medium, and the suspension adjusted to 4×10^5 spores per mL. Microtiter plates containing compounds as described above were inoculated with 100 μL of this cell suspension and the plates incubated at 27° C. for 72 h before assessing algal growth by measuring light scattering in a NepheloStar plate reader. Growth inhibition was determined by comparing growth in the presence of test compound with growth in control wells lacking test compound. Results for growth inhibition by test compounds in BG-11 Cu plus medium (% Inhn Plus Copper Observed) were compared with predicted values (% Inhn Plus Copper Predicted) that were calculated using the formula set forth by S. R. Colby in Weeds 1967, 15, 20-22 based on-results obtained for the same compounds in BG-11 Cu minus medium (% Inhn Minus Copper Observed) and the inhibition attributed to copper chloride alone, as determined by comparing growth in copper-minus and copper-plus media without any test compound across experiments. Results illustrate that hydrazones and copper produce a synergistic algicidal effect towards Synechocystis.

[2] = Synechocystis, Test Concn. 0.05 μg/mL, BG-11 Cu minus medium, read-out: % Inhn. Minus Copper Observed

melting point	Compound	inhibition of growth at 1 µg/mL (C. reinhardtii CC-1928)	% Inhn. Plus Copper Observed (C. reinhardtii CC-1928)	inhibition of growth at 0.05 µg/mL [1, 2]	% Inhn. Plus Copper Observed ([1]; Test Concn. 0.05 μg/mL)	inhibition of growth at 0.025 µg/mL ([1]; Synechocystis, Test Concn. 0.025 μg/mL, BG-11 Cu minus medium, read-out: % Inhn. Minus Copper Observed)	% Inhn. Plus Copper Observed ([1]; Test Concn. 0.025 μg/mL)	inhibition of growth at 0.0125 µg/mL ([1]; Synechocystis, Test Concn. 0.0125 μg/mL, BG-11 Cu minus medium, read-out: % Inhn. Minus Copper Observed)	% Inhn. Plus Copper Observed ([1]; Test Concn. 0.0125 μg/mL)
258 to 260 °C	O=C(N/N=C/c1cc(Cl)cc(C(F)(F)F)c1O)c1ccccc1O [Compound 48]	18%	92%	32%	95%	–	–	–	–
166 to 169 °C	Cc1cccc(C(=O)N/N=C/c2cccc(Cl)c2O)c1 [Compound 50]	6%	97%	-7%	95%	–	–	–	–
174 to 178 °C	O=C(N/N=C/c1cccc(Cl)c1O)c1cccc(Cl)c1 [Compound 51]	-13%	96%	17%	97%	–	–	–	–
284 to 287 °C	O=C(N/N=C/c1cccc(Cl)c1O)c1ccc([N+](=O)[O-])cc1 [Compound 53]	8%	88%	45%	94%	–	–	–	–
266 to 268 °C	O=C(N/N=C/c1cccc(Cl)c1O)c1ccccc1O [Compound 54]	-8%	75%	37%	88%	–	–	–	–
258 to 266 °C	Cc1ccc(C(=O)N/N=C/c2cccc(Cl)c2O)c(O)c1 [Compound 55]	-3%	97%	68%	92%	–	–	–	–
278 to 280 °C	O=C(N/N=C/c1c(C(F)(F)F)ccc(Cl)c1O)c1ccccc1O [Compound 57]	-11%	95%	61%	92%	–	–	–	–
245 °C	C/C(=N\NC(=O)c1c(C)cccc1O)c1cc(Cl)cc(Cl)c1O [Compound 58]	3%	93%	–	–	46%	64%	–	–
195 to 200 °C	C/C(=N\NC(=O)c1ccc(C)cc1)c1cccc(Cl)c1O [Compound 59]	-6%	92%	1%	93%	–	–	–	–
244 to 252 °C	C/C(=N\NC(=O)c1ccc(Br)cc1)c1cccc([N+](=O)[O-])c1O [Compound 60]	-50%	89%	–	–	–	–	33%	50%
242 to 245 °C	C/C(=N\NC(=O)c1ccccc1)c1cc(Br)cc(Br)c1O [Compound 61]	-56%	94%	61%	96%	–	–	–	–
276 to 280 °C	C/C(=N\NC(=O)c1ccc(Cl)cc1)c1cc(F)cc(F)c1O [Compound 62]	0%	95%	60%	95%	–	–	–	–
